In US7423068B2, “Control of parasitic mites of honey bees” (The United States of America as represented by the …, priority 2001, dated 2008):
Marks after values point to notes of the source that are not given here.

Tests used:
Varroa mites [1] = assay: Attractant petri dish bioassay with 20% 2-heptanone gel formulation; format: in vivo, Varroa jacobsoni; conditions: 40 μL of 20% 2-heptanone gel
Procedure: We conducted bioassays to deternine if 2-heptanone attracts Varroa mites. In the first bioassay, we exposed free-running adult mites to volatiles from a 20% 2-heptanone in a gel formulation. […] 40 μL of 20% 2-heptanone in a gel formulation was added to a weighing boat located in the center of the petri dish. Control dishes were set up as described above with empty weighing boats in the center. Within 24 hours 27.3% of the mites were found in the gel formulation of 2-heptanone located in the weighing boat in the center of the petri dish. No mites were found in the weighing boat in the Control dish. The bioassay was repeated using the same procedure as described above. In the second replicate, 16.7% of the mites were found in the gel formulation of 2-heptanone located in the weighing boat in the center of the petri dish and again 0% were found in the weighing boats of the Control dishes.

[2] = Release rate of 2-heptanone from acrylic blocks; format: physicochemical; conditions: acrylic block, 34° C.
Text: Blocks having the following composition were made:
Polymerization was triggered with 2.9% benzoyl peroxide and 1.1% dimethylparatoluidine. Each block weighed approximately 30 grams (Diam. 60 mm, Height 10 mm). The blocks were molded in an aluminum cup.
However, it was found, because of a packaging problem, that the blocks lost some active ingredient during transportation and had only 30% 2-heptanone. To avoid any further loss of active ingredient, the unused samples were stored at all times in a refrigerator at 4° C. The value of 30% 2-heptanone was kept for further processing of the data. The rate at which 2-heptanone was released from the blocks was measured. The experimental procedure consisted in weighing the acrylic blocks left in their aluminum mold at regular intervals. The blocks were kept in an incubator set at 34° C. (temperature of the center of the brood nest in a honey bee hive). It is noteworthy that the incubator is not air tight and that the incubator glass door had to be opened to retrieve the sample to be weighed. An Isotemp Incubator from Fisher Scientific was used. The incubator has a measured volume of 71 liters. The samples were monitored for 44 days.

Varroa mites [3] = assay: Bulls eye petri dish bioassay for attractiveness; format: in vivo, Varroa jacobsoni; conditions: for % of Varroa at distance from Target Source 2.5 cm / % of Varroa at distance from Target Source 3.8 cm / % of Varroa at distance from Target Source 6.3 cm / % of Varroa in Target / % of Varroa at distance from Target Source 1.3 cm / % of Varroa at distance from Target Source 5.1 cm: 0.04 g of 30% 2-heptanone acrylic block
Procedure: A third bioassay to test for attractiveness of 2-heptanone to Varroa was conducted in petri dishes with a diameter of 13.97 cm and a volume of 76.64 cm^3. The dishes were prepared as described previously in the first bioassay of this Example using 20% gel formulation of 2-heptanone. However, the petri dishes for this bioassay were modified by drilling a hole 1.6 cm in diameter into the center of the dish. This hole was large enough to fit a 1.5 mL Eppendorf® tube which would serve as the dispenser for the 2-heptanone. The lid of each petri dish was labeled in a “bulls eye” fashion with concentric circles at 1.27 cm increments from the center where the Eppendorf® tube was located. The maximum distance from the center was 6.35 cm. The Eppendorf® tube is considered the target. In the treatment dishes, 0.04 g of 2-heptanone in acrylic block formulation (30% concentration) was placed in the Eppendorf® tube and covered with a small amount of sterile cotton. Control dishes were prepared in the same manner as the treatment dishes but the Eppendorf® tubes contained only cotton. Mites (4-5 per dish) were placed in each dish in the area furthest from the center where the Eppendorf® tube was located.
After the dishes were prepared a square section of mosquito netting large enough to cover the top of the petri dish was placed over the dish and secured with a rubber band. The mosquito netting was used instead of a lid on the dish. The mesh of the netting was wide enough to allow the 2-heptanone to volatilize, but prevented the mites from escaping. The marked lids were placed on top of the dishes every 30 minutes to document mite movement. After the measurements were made, the lids were immediately removed.
A fourth test of attractiveness was conducted in the petri dishes that were prepared as described above. In this test 0.06 g of 2-heptanone (30% concentration in acrylic block delivery system) was placed in the center target of the treatment plates. Control plates contained an empty Eppendorf® tube. The mites were placed 3.17 cm from the target. The mites could move closer or farther away from the target. Two treatment and two Control plates with 5 mites each were observed.

[4] = exposure 1 hr, significantly different from Control

With `CCCCCC(C)=O` [2-Heptanone] the “% of the mites found in the gel formulation in the weighing boat” value (Varroa mites [1]; second replicate, Control 0%) was 16.7%, the “% of the mites found in the gel formulation in the weighing boat” value (Varroa mites [1]; within 24 hours, first bioassay, Control none) was 27.3% and the “% 2-Heptanone loss (initial conc. 30%)” value ([2]; Day 0) was 0%. The “Daily release in percentage” value ([2]; Day 0) was 0 percentage, the “% 2-Heptanone loss (initial conc. 30%)” value ([2]; Day 1) was 29.13% and the “Daily release in percentage” value ([2]; Day 1) was 29.13 percentage. For the same molecule, the “% 2-Heptanone loss (initial conc. 30%)” value ([2]; Day 2) was 38.76%, the “Daily release in percentage” value ([2]; Day 2) was 9.63 percentage and the “% 2-Heptanone loss (initial conc. 30%)” value ([2]; Day 3) was 49.04%. For the same molecule, the “Daily release in percentage” value ([2]; Day 3) was 10.28 percentage, the “% 2-Heptanone loss (initial conc. 30%)” value ([2]; Day 4) was 55.72% and the “Daily release in percentage” value ([2]; Day 4) was 6.68 percentage. The “% 2-Heptanone loss (initial conc. 30%)” value ([2]; Day 7) was 68.85%, the “Daily release in percentage” value ([2]; Day 7) was 4.38 percentage and the “% 2-Heptanone loss (initial conc. 30%)” value ([2]; Day 8) was 71.82%. For the same molecule, the “Daily release in percentage” value ([2]; Day 8) was 2.97 percentage, the “% 2-Heptanone loss (initial conc. 30%)” value ([2]; Day 9) was 74.7% and the “Daily release in percentage” value ([2]; Day 9) was 2.88 percentage. For the same molecule, the “% 2-Heptanone loss (initial conc. 30%)” value ([2]; Day 10) was 76.09%, the “Daily release in percentage” value ([2]; Day 10) was 1.39 percentage and the “% 2-Heptanone loss (initial conc. 30%)” value ([2]; Day 11) was 77.88%. The “Daily release in percentage” value ([2]; Day 11) was 1.79 percentage, the “% 2-Heptanone loss (initial conc. 30%)” value ([2]; Day 14) was 82.31% and the “Daily release in percentage” value ([2]; Day 14) was 1.48 percentage. The “% 2-Heptanone loss (initial conc. 30%)” value ([2]; Day 15) was 83.43%, the “Daily release in percentage” value ([2]; Day 15) was 1.12 percentage and the “% 2-Heptanone loss (initial conc. 30%)” value ([2]; Day 16) was 84.39%. The “Daily release in percentage” value ([2]; Day 16) was 0.96 percentage, the “% 2-Heptanone loss (initial conc. 30%)” value ([2]; Day 18) was 86.24% and the “Daily release in percentage” value ([2]; Day 18) was 0.92 percentage. For the same molecule, the “% 2-Heptanone loss (initial conc. 30%)” value ([2]; Day 21) was 88.43%, the “Daily release in percentage” value ([2]; Day 21) was 0.73 percentage and the “% 2-Heptanone loss (initial conc. 30%)” value ([2]; Day 24) was 89.98%. The “Daily release in percentage” value ([2]; Day 24) was 0.52 percentage, the “% 2-Heptanone loss (initial conc. 30%)” value ([2]; Day 30) was 92.36% and the “Daily release in percentage” value ([2]; Day 30) was 0.4 percentage. For the same molecule, the “% 2-Heptanone loss (initial conc. 30%)” value ([2]; Day 44) was 95.21%, the “Daily release in percentage” value ([2]; Day 44) was 0.2 percentage and the “% of Varroa at distance from Target Source 2.5 cm” value (Varroa mites [3]; exposure 1 hr) was 7.5%. The “% of Varroa at distance from Target Source 3.8 cm” value (Varroa mites [3]; exposure 1 hr) was 25.0%, the “% of Varroa at distance from Target Source 6.3 cm” value (Varroa mites [3]; exposure 1 hr) was 17.5% and the “% of Varroa in Target” value (Varroa mites [3]; exposure 1 hr) was 0%. The “% of Varroa at distance from Target Source 1.3 cm” value (Varroa mites [3]; [4]) was 27.5* %, the “% of Varroa at distance from Target Source 5.1 cm” value (Varroa mites [3]; [4]) was 16.2* % and the “% of Varroa at distance from Target Source 1.3 cm” value (Varroa mites [3]; exposure 2 hrs) was 32.5%. The “% of Varroa at distance from Target Source 2.5 cm” value (Varroa mites [3]; exposure 2 hrs) was 20.0%, the “% of Varroa at distance from Target Source 3.8 cm” value (Varroa mites [3]; exposure 2 hrs) was 12.5% and the “% of Varroa at distance from Target Source 5.1 cm” value (Varroa mites [3]; exposure 2 hrs) was 15.0%. For the same molecule, the “% of Varroa at distance from Target Source 6.3 cm” value (Varroa mites [3]; exposure 2 hrs) was 10.0%, the “% of Varroa in Target” value (Varroa mites [3]; exposure 2 hrs) was 7.5% and the “% of Varroa at distance from Target Source 1.3 cm” value (Varroa mites [3]; exposure 3 hrs) was 45.6%. The “% of Varroa at distance from Target Source 2.5 cm” value (Varroa mites [3]; exposure 3 hrs) was 10.6%, the “% of Varroa at distance from Target Source 3.8 cm” value (Varroa mites [3]; exposure 3 hrs) was 22.5% and the “% of Varroa at distance from Target Source 5.1 cm” value (Varroa mites [3]; exposure 3 hrs) was 12.5%. The “% of Varroa at distance from Target Source 6.3 cm” value (Varroa mites [3]; exposure 3 hrs) was 7.5%, the “% of Varroa in Target” value (Varroa mites [3]; exposure 3 hrs) was 3.1% and the “% of Varroa at distance from Target Source 1.3 cm” value (Varroa mites [3]; exposure 4 hrs) was 42.2%. The “% of Varroa at distance from Target Source 2.5 cm” value (Varroa mites [3]; exposure 4 hrs) was 13.3%, the “% of Varroa at distance from Target Source 3.8 cm” value (Varroa mites [3]; exposure 4 hrs) was 20.0% and the “% of Varroa at distance from Target Source 5.1 cm” value (Varroa mites [3]; exposure 4 hrs) was 18.8%. The “% of Varroa at distance from Target Source 6.3 cm” value (Varroa mites [3]; exposure 4 hrs) was 5.5%, the “% of Varroa in Target” value (Varroa mites [3]; exposure 4 hrs) was 0% and the “% of mites that moved into the target” value (Varroa mites [3]; fourth test, 0.06 g of 30% 2-heptanone acrylic block, 4 hr. observation, Controls 0.0%) was 9.1%. For the same molecule, the “% of mites that moved within 1.27 cm of the target” value (Varroa mites [3]; fourth test, 0.06 g of 30% 2-heptanone acrylic block, mites placed 3.17 cm from target, 4 hr. observation, Controls 6.2%) was 38.4%.
